Values of other authors as cited in patent publication US20240091148A1, “EUTECTIC SOLVENTS COMPRISING PHARMACEUTICAL AGENTS, AND METHODS OF MAKING AND USE THEREOF” (Novilla Pharmaceuticals, Inc., priority 2018, published 2024).

Settings: values stated in the description, no method or source given

pKa	Structure (SMILES)
13-16	C[C@H]1C[C@H]2[C@@H]3CCC4=CC(=O)C=C[C@]4(C)[C@@]3(Cl)[C@@H](O)C[C@]2(C)[C@@]1(O)C(=O)CO [beclomethasone]
12-13	C[C@@H]1C[C@H]2[C@@H]3CCC4=CC(=O)C=C[C@]4(C)[C@@]3(Cl)[C@@H](O)C[C@]2(C)[C@@]1(O)C(=O)CCl [mometasone]

The next lines start with the compound.

Structure (SMILES)	pKa
CCCC1O[C@@H]2C[C@H]3[C@@H]4CCC5=CC(=O)C=C[C@]5(C)[C@H]4[C@@H](O)C[C@]3(C)[C@]2(C(=O)CO)O1 (stereo partly drawn) [budesonide]	13-15
CC(C)C(=O)OCC(=O)[C@@]12O[C@H](C3CCCCC3)O[C@@H]1C[C@H]1[C@@H]3CCC4=CC(=O)C=C[C@]4(C)[C@H]3[C@@H](O)C[C@@]12C [ciclesonide]	14-16
C[C@@H]1C[C@H]2[C@@H]3C[C@H](F)C4=CC(=O)C=C[C@]4(C)[C@@]3(F)[C@@H](O)C[C@]2(C)[C@@]1(O)C(=O)SCF [fluticasone]	12-14
CN(C)CCOC(C)(c1ccccc1)c1ccccn1 (stereo not drawn) [doxylamine]	8.7-9.2
